Experimental data published in patent US7253146B2, “Template-fixed peptidomimetics with antimicrobial activity” (Polyphor Ltd, priority 2001, dated 2007).
≈ marks a conversion by molar mass, not a printed value. Like-named read-outs stand apart in the source and are kept apart here. *1 amine or outer side, *2 acyl side, *3 side chain or, on linkers, in order; H or OH if unused. Where a SMILES comes first, the peptide text is derived from it. [ ]: non-standard residue; d: D form. The star is where a group is joined. X3 = O=C(N[C@H]1C[C@@H](C(=O)[*:2])N([*:1])C1)C1CCCCC1; X2 = CCCCCCCC(=O)N[C@H]1C[C@@H](C(=O)[*:2])N([*:1])C1; X1 = CCCCCCC(=O)N[C@H]1C[C@@H](C(=O)[*:2])N([*:1])C1; Phenylacetyl(4-Ph) = O=C(Cc1ccc(-c2ccccc2)cc1)*; X4 = O=C([C@@H]1C[C@H](N[*:3])CN1[*:1])[*:2]; Diphenylacetyl = O=C(C(c1ccccc1)c1ccccc1)*; Bip = N[C@@H](Cc1ccc(-c2ccccc2)cc1)C(=O)O

Key:
[1] = system: Staphylococcus aureus ATCC 25923
Experimental: (§1) Lyophilized peptides were weighed on a Microbalance (Mettler MT5) and dissolved in sterile water containing 0.01% acetic acid Tachyplesin was purchased from Bachem Ltd. (Bubendorf Switzerland).
(§2) The antimicrobial activities of the peptides were determined by the standard NCCLS broth microdilution method (see ref 1, below) examined in sterile 96-wells plates (Nunclon polystyrene microtiter plates) in a total volume of 100 μl. […] 10^6 colony forming units (CFU)/ml for bacteria or 5×10^3 CFU/ml for Candida. Aliquots (50 μl) of the innocula were added to 50 μl of MH broth containing the peptide in serial twofold dilutions. The microorganisms used were Escherichia coli (ATCC 25922), Pseudomnonas aeruginosa (P. aeruginosa) (ATCC 27853), Stahylococcus aureus (ATCC 29213 and ATCC 25923) and Candida albicans. A selected number of peptides were screened for activity against a larger panel of gram-negative strains. These strains were; Escherichia coli ATCC 43827 and clinical isolates of Pseudomonas (P. aeruginosa V07 14482, P. aeruginosa 15288, P. aeruginosa V02 15328 and P. aeruginosa V09 16085) and Acinetobacter (Acinetobacter V04 19905/1, Acinetobacter V12 21143/1 and Acinetobacter V12 21193/1).

[2] = system: Staphylococcus aureus ATCC 29213
Experimental: as §1, §2

Candida albicans [3] = system: Candida albicans
Experimental: as §1, §2

[4] = system: Escherichia coli (ATCC 25922)
Experimental: as §1, §2

[5] = system: Staphylococcus aureus ATCC 25923; remark: listed apart in the source
Experimental: as §2
(§3) Salt sensitivity of the peptides was tested by the microtiter serial dilution assay as described above. Only MH broth was replaced by MH broth containing 1% NaCl.

[6] = system: Pseudomonas putida ATCC 27853
Experimental: as §2, §3

[7] = system: Escherichia coli ATCC 25922
Experimental: as §2, §3

[8] = system: Staphylococcus aureus ATCC 29213; remark: listed apart in the source
Experimental: as §2, §3

Candida albicans [9] = system: Candida albicans; remark: listed apart in the source
Experimental: as §2, §3

[10] = system: human red blood cells (hRBC); test: Hemolysis of human red blood cells at 100 μg/ml peptide; conditions: 100 μg/ml of peptide, 20% v/v hRBC, 1 hour at 37° C.
Experimental: Hemolysis of red blood cells is often employed for assessment of toxicity of related compounds such as protegrin or tachyplesin. Values are given as %-lysis of red blood cells observed at a concentration of 100 μg/ml.
The peptides were tested for their hemolytic activity against human red blood cells (hRBC). Fresh hRBC were washed three times with phosphate buffered saline (PBS) by centrifugation for 10 min at 2000×g. Peptides at a concentration of 100 μg/ml were incubated with 20% v/v hRBC for 1 hour at 37° C. The final erythrocyte concentration was appr. 0.9×10^9/ml. A value of 0% resp. 100% cell lysis was determined by incubation of the hRBC in the presence of PBS alone and resp. 0.1% Triton X-100 in H2O. The samples were centrifuged and the supernatant was 20 fold diluted in PBS buffer and the optical density (OD) of the sample at […] was measured. […] Percent hemolysis was calculated as follows: (OD540peptide/OD540H2O)×100%.

[11] = system: gram-positive and gram-negative bacteria; conditions: background statement; cited from earlier work
human red blood cells = conditions: cited from earlier work

| Compound | MIC Staphylococcus aureus ATCC 25923 ([1]; ATCC 25923) [µg/mL] | MIC Staphylococcus aureus ATCC 29213 ([2]; ATCC 29213) [µg/mL] | MIC Candida albicans (Candida albicans [3]) [µg/mL] | MIC Escherichia coli ATCC 25922 ([4]; ATCC 25922) [µg/mL] | MIC Staphylococcus aureus ATCC 25923 ([1]; Table 8, Mueller-Hinton broth) [µg/mL] | MIC Staphylococcus aureus ATCC 29213 ([2]; Table 8, Mueller-Hinton broth) [µg/mL] | MIC Candida albicans (Candida albicans [3]; Table 8, Mueller-Hinton broth) [µg/mL] | MIC Escherichia coli ATCC 25922 ([4]; Table 8, Mueller-Hinton broth) [µg/mL] | Hemolyses hRBC (percentage hemolyses) [10] [%] | other results |
| --- | --- | --- | --- | --- | --- | --- | --- | --- | --- | --- |
| CCCCCCC(=O)N[C@H]1C[C@H]2C(=O)N[C@@H](CC(C)C)C(=O)N[C@@H](CCCNC(=N)N)C(=O)N[C@@H](CC(C)C)C(=O)N[C@@H](CCCCN)C(=O)N[C@@H](CCCCN)C(=O)N[C@@H](CCCNC(=N)N)C(=O)N[C@@H](CCCNC(=N)N)C(=O)N[C@@H](Cc3c[nH]c4ccccc34)C(=O)N[C@@H](CCCCN)C(=O)N[C@@H](Cc3ccc(O)cc3)C(=O)N[C@@H](CCCNC(=N)N)C(=O)N[C@@H](C(C)C)C(=O)N3CCC[C@@H]3C(=O)N2C1 [Example 256] (cyclo(KKRRWKYRV[dP][X1]LRL)) | 6.2 (≈ 3.09 µM) | 6.2 (≈ 3.09 µM) | 6.2 (≈ 3.09 µM) | 3.1 (≈ 1.55 µM) |  |  |  |  |  | Minimal inhibitory concentration (MIC) Staphylococcus aureus ATCC 25923 [5]: 25 µg/mL (≈ 12.5 µM); Minimal inhibitory concentration (MIC) Pseudomonas putida ATCC 27853 [6]: 6.2 µg/mL (≈ 3.09 µM); Minimal inhibitory concentration (MIC) Escherichia coli ATCC 25922 [7]: 6.2 µg/mL (≈ 3.09 µM); Minimal inhibitory concentration (MIC) Staphylococcus aureus ATCC 29213 [8]: 25 µg/mL (≈ 12.5 µM); Minimal inhibitory concentration (MIC) Candida albicans (Candida albicans [9]): 25 µg/mL (≈ 12.5 µM) |
| CC(C)C[C@@H]1NC(=O)[C@H](Cc2c[nH]c3ccccc23)NC(=O)[C@H](CC(C)C)NC(=O)[C@@H]2CCCN2C(=O)[C@H]2CCCN2C(=O)[C@H](C(C)C)NC(=O)[C@H](CCCNC(=N)N)NC(=O)[C@H](Cc2ccc(O)cc2)NC(=O)[C@H](CCCNC(=N)N)NC(=O)[C@H](Cc2ccc(-c3ccccc3)cc2)NC(=O)[C@H](CCCNC(=N)N)NC(=O)[C@H](CCCNC(=N)N)NC(=O)[C@H](CCCCN)NC(=O)[C@H](CCCCN)NC1=O [Example 232] (cyclo(LWLKKRR[Bip]RYRV[dP]P)) |  |  |  |  | 6.2 (≈ 3.14 µM) | 9.4 (≈ 4.76 µM) | 9.4 (≈ 4.76 µM) | 6.2 (≈ 3.14 µM) | 1.5 |  |
| Gramicidin S |  |  |  |  |  |  |  |  |  | antimicrobial activity [11]: potent antimicrobial activity; hemolytic activity (human red blood cells; background statement): high hemolytic activity |
| CC(C)C[C@H](NC(=O)[C@H](CCCNC(=N)N)NC(=O)CNC(=O)CNC(=O)[C@@H](N)CCCNC(=N)N)C(=O)N[C@H]1CSSC[C@@H](C(=O)N[C@H](C(=O)NCC(=O)N[C@@H](CCCNC(=N)N)C(N)=O)C(C)C)NC(=O)[C@H](C(C)C)NC(=O)[C@@H]2CSSC[C@H](NC(=O)[C@H](Cc3ccc(O)cc3)NC1=O)C(=O)N[C@@H](CCCNC(=N)N)C(=O)N[C@@H](CCCNC(=N)N)C(=O)N[C@@H](CCCNC(=N)N)C(=O)N[C@@H](Cc1ccccc1)C(=O)N2 [protegrin] |  |  |  |  |  |  |  |  |  | antimicrobial activity [11]: potent and similar activity; hemolytic activity (human red blood cells): high hemolytic activity |
| CCCCCCCC(=O)N[C@H]1C[C@H]2C(=O)N[C@@H](CC(C)C)C(=O)N[C@@H](CCCNC(=N)N)C(=O)N[C@@H](CC(C)C)C(=O)N[C@@H](CCCCN)C(=O)N[C@@H](CCCCN)C(=O)N[C@@H](CCCNC(=N)N)C(=O)N[C@@H](CCCNC(=N)N)C(=O)N[C@@H](Cc3c[nH]c4ccccc34)C(=O)N[C@@H](CCCCN)C(=O)N[C@@H](Cc3ccc(O)cc3)C(=O)N[C@@H](CCCNC(=N)N)C(=O)N[C@@H](C(C)C)C(=O)N3CCC[C@@H]3C(=O)N2C1 [Example 257] (cyclo(KKRRWKYRV[dP][X2]LRL)) | 6.2 (≈ 3.07 µM) | 6.2 (≈ 3.07 µM) | 25 (≈ 12.4 µM) | 6.2 (≈ 3.07 µM) |  |  |  |  |  |  |
| CC(C)C[C@@H]1NC(=O)[C@H](CCCNC(=N)N)NC(=O)[C@H](CC(C)C)NC(=O)[C@@H]2C[C@H](NC(=O)C3CCCCC3)CN2C(=O)[C@H]2CCCN2C(=O)[C@H](C(C)C)NC(=O)[C@H](CCCNC(=N)N)NC(=O)[C@H](Cc2ccc(O)cc2)NC(=O)[C@H](CCCCN)NC(=O)[C@H](Cc2c[nH]c3ccccc23)NC(=O)[C@H](CCCNC(=N)N)NC(=O)[C@H](CCCNC(=N)N)NC(=O)[C@H](CCCCN)NC(=O)[C@H](CCCCN)NC1=O [Example 267] (cyclo(KKRRWKYRV[dP][X3]LRL)) | 12.5 (≈ 6.24 µM) | 6.2 (≈ 3.09 µM) | 12.5 (≈ 6.24 µM) | 12.5 (≈ 6.24 µM) |  |  |  |  |  |  |
| CC(C)C[C@@H]1NC(=O)[C@H](CCCNC(=N)N)NC(=O)[C@H](CCCNC(=N)N)NC(=O)[C@H](CCCNC(=N)N)NC(=O)[C@H](Cc2ccccc2)NC(=O)[C@H](Cc2ccccc2)NC(=O)[C@H](CC(C)C)NC(=O)[C@H](CCCNC(=N)N)NC(=O)[C@@H]2CCCN2C(=O)[C@H]2CCCN2C(=O)[C@H](CCCNC(=N)N)NC(=O)[C@H](Cc2ccccc2)NC1=O [Example 36] (cyclo(RLFFRRRLFR[dP]P)) | 50 (≈ 30.4 µM) | 25 (≈ 15.2 µM) | 25 (≈ 15.2 µM) | 25 (≈ 15.2 µM) |  |  |  |  |  |  |
| CC(C)C[C@@H]1NC(=O)[C@H](CCCNC(=N)N)NC(=O)[C@H](CC(C)C)NC(=O)[C@@H]2C[C@H](NC(=O)C(c3ccccc3)c3ccccc3)CN2C(=O)[C@H]2CCCN2C(=O)[C@H](C(C)C)NC(=O)[C@H](CCCNC(=N)N)NC(=O)[C@H](Cc2ccc(O)cc2)NC(=O)[C@H](CCCCN)NC(=O)[C@H](Cc2c[nH]c3ccccc23)NC(=O)[C@H](CCCNC(=N)N)NC(=O)[C@H](CCCNC(=N)N)NC(=O)[C@H](CCCCN)NC(=O)[C@H](CCCCN)NC1=O [Example 259] (cyclo(KKRRWKYRV[dP][X4](Diphenylacetyl)LRL)) |  |  |  |  | 6.2 (≈ 2.97 µM) | 6.2 (≈ 2.97 µM) | 12.5 (≈ 5.99 µM) | 6.2 (≈ 2.97 µM) | 18.0 |  |
| CC(C)C[C@@H]1NC(=O)[C@H](CCCNC(=N)N)NC(=O)[C@H](CC(C)C)NC(=O)[C@@H]2C[C@H](NC(=O)Cc3ccc(-c4ccccc4)cc3)CN2C(=O)[C@H]2CCCN2C(=O)[C@H](C(C)C)NC(=O)[C@H](CCCNC(=N)N)NC(=O)[C@H](Cc2ccc(O)cc2)NC(=O)[C@H](CCCCN)NC(=O)[C@H](Cc2c[nH]c3ccccc23)NC(=O)[C@H](CCCNC(=N)N)NC(=O)[C@H](CCCNC(=N)N)NC(=O)[C@H](CCCCN)NC(=O)[C@H](CCCCN)NC1=O [Example 258] (cyclo(KKRRWKYRV[dP][X4](Phenylacetyl(4-Ph))LRL)) |  |  |  |  | 6.2 (≈ 2.97 µM) | 6.2 (≈ 2.97 µM) | 12.5 (≈ 5.99 µM) | 6.2 (≈ 2.97 µM) | 23.6 |  |
